As a reminder, the IC50 is the point on the concentration scale where inhibition reaches its midpoint.

The text below walks through data of ChEMBL document CHEMBL4184305, “Inhibition of histone lysine methyltransferases G9a and GLP by ejection of structural Zn(II)” (Bioorg Med Chem Lett, 2018).

Activity calls are given as the source filed them. The calls are words filed in the database; no cut-off is given here.

For assay [1], the target named is T1, Histone-lysine N-methyltransferase EHMT2 (Homo sapiens, UniProt Q96KQ7).
T1 sequence (Q96KQ7 whole entry): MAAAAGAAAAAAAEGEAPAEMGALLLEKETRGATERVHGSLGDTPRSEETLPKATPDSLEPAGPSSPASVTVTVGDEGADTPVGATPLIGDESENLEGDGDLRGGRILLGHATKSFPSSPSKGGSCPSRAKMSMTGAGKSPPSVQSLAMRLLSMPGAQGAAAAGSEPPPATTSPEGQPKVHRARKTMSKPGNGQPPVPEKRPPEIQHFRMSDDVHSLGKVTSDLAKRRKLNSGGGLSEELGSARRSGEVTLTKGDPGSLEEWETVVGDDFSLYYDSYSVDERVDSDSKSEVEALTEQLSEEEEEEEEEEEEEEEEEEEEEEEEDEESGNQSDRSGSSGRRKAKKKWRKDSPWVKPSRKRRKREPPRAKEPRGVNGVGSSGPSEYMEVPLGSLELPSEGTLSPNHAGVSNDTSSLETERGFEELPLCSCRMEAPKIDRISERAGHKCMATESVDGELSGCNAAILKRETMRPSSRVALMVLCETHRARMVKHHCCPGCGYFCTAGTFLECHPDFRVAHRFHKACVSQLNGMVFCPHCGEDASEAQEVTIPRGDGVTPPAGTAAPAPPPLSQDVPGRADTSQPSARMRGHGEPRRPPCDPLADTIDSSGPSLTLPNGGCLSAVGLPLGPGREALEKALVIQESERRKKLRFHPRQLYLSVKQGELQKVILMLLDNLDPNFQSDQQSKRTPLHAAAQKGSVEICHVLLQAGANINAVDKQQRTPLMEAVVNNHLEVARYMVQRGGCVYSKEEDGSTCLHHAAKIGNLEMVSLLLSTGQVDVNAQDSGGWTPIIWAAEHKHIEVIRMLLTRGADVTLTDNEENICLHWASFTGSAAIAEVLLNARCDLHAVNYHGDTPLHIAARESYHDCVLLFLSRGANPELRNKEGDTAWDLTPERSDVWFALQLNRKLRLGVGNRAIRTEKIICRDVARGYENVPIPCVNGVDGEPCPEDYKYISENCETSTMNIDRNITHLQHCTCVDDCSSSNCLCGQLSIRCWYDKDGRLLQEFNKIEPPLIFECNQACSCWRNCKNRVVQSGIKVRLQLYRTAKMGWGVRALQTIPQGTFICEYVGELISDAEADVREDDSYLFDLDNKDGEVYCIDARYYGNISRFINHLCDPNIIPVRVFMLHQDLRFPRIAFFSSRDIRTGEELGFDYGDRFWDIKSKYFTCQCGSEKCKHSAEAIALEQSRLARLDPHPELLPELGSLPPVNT
Nature of the assay: Inhibition of wild type recombinant human histone lysine methyltransferase G9a (913 to 1193 residues) expressed in Escherichia coli Rosetta BL21 DE3 PlysS using ARTKQTARKSTGGKA as substrate preincubated for 5 mins followed by substrate/SAM addition measured after 60 mins by MALDI-TOF MS analysis.

The target in assay [2] is T2, Histone-lysine N-methyltransferase EHMT2 (Homo sapiens) (UniProt Q96KQ7).
T2 sequence (whole entry): T1 sequence (Q96KQ7 whole entry)
The assay can be described thus: Inhibition of wild type recombinant human histone lysine methyltransferase G9a (913 to 1193 residues) expressed in Escherichia coli Rosetta BL21 DE3 PlysS assessed as zinc ions ejection from 3 types of Cys9-type Zn fingers at >25 uM after 1 hr by circular dichroism analysis. For orientation: Circular dichroism is widely used to follow secondary structure.

For the compound `O=c1c2ccccc2[se]n1-c1ccccc1` [EBSELEN], the concentration for half-maximal inhibition (IC50) in assay [1] stood at 400 nM. In addition, the inhibition result in assay [2] was “Active”.
